Data on two molecules can be found in patent US20060292073A1, “Stereoselective Synthesis of Amino Acid Analogs for Tumor Imaging” (priority 2005, published 2006).

SMILES strings stand for the structures.

Data set [1] has as its system DU145 Prostate tumor cells. The data set can be described thus: Amino acid uptake assay in vitro, DU145 tumor cells ± transporter inhibitors. The class given is cell-based, human. To be noted: 30 minutes incubation. As for the experimental part:
(§1) The tumor cells were initially grown as monolayers in T-flasks containing Dulbecco's Modified Eagle's Medium (DMEM) under humidified incubator conditions (37° C., 5% CO2/95% air). The growth media were supplemented with 10% fetal calf serum and antibiotics (10,000 units/ml penicillin and 10 mg/ml streptomycin). The growth media were replaced three times per week, and the cells were passaged so the cells would reach confluency in a week's time.
(§2) When the monolayers were confluent, cells were prepared for experimentation in the following manner. Growth media were removed from the T-flask, and the monolayer cells were exposed to 1× trypsin:EDTA for ˜1 minute to weaken the protein attachments between the cells and the flask. The flask was then slapped, causing the cells to release. Supplemented media were added to inhibit the proteolytic action of the trypsin, and the cells were aspirated through an 18 Ga needle until they were monodispersed. A sample of the cells was counted under a microscope using a hemocytometer, and the live/dead fraction estimated through trypan blue staining (>98% viability). The remainder of the cells was placed into a centrifuge tube, centrifuged at 75×g for 5 minutes, and the supernatant was removed. The cells were then resuspended in amino-acid/serum-free DMEM salts.
(§3) In this study, approximately 4.55×10^5 cells were exposed to either [^18F]10 (anti-FACBC) or [^18F]15 (syn-FACBC, 5 μCi) in 3 ml of amino acid free media ±transporter inhibitors (10 mM) for 30 minutes under incubator conditions in 12×75 mm glass vials. Each assay condition was performed in duplicate. After incubation, cells were twice centrifuged (75×g for 5 minutes) and rinsed with ice-cold amino-acid/serum-free DMEM salts to remove residual activity in the supernatant. The vials were placed in a Packard Cobra II Auto-Gamma counter, the raw counts decay corrected, and the activity per cell number determined. The data from these studies (expressed as percent uptake relative to control) were graphed using Excel, with statistical comparisons between the groups analyzed using a 1-way ANOVA (GraphPad Prism software package).
(§4) To test the hypothesis that [^18F]10 and [^18F]15 enter cells predominantly via the L-type amino acid transport system, amino acid uptake assays using cultured 9L gliosarcoma and a variety of human cancer cell lines in the presence and absence of two well-described inhibitors of amino acid transport were performed. […] The A- and L-type amino acid transport systems have been implicated in the in vivo uptake of radiolabeled amino acids used for tumor imaging.

For data set [2], the system named is 9L gliosarcoma tumor / contralateral normal brain. Nature of the data set: Rodent biodistribution in rats implanted intracranially with 9L gliosarcoma cells. It counts as in vivo, male Fischer rats. To be noted: for retention of radioactivity in tumor tissue: 60 minutes after intravenous injection, intracranial 9L tumor; for Ratios of tumor uptake to normal brain uptake: at 60 and 120 minutes after intravenous injection, printed as x:1. As for the experimental part: All animal experiments were carried out under humane conditions and were approved by the Institutional Animal Use and Care Committee (IUCAC) at Emory University. Rat 9L gliosarcoma cells were implanted into the brains of male Fischer rats. Briefly, anesthetized rats placed in a stereotactic head holder were injected with a suspension of 4×10^4 rat 9L gliosarcoma cells (1×10^7 per mL) in a location 3 mm right of midline and 1 mm anterior to the bregma at a depth of 5 mm deep to the outer table. The injection was performed over the course of 2 minutes, and the needle was withdrawn over the course of 1 minute to minimize the backflow of tumor cells. The burr hole and scalp incision were closed, and the animals were returned to their original colony after recovering from the procedure. Intracranial tumors developed that produced weight loss, apathy and hunched posture in the tumor-bearing rats, and the animals were used at 17-19 days after implantation. Of the 30 animals implanted with tumor cells, 25 developed tumors visible to the naked eye upon dissection and were used in the study. FIGS. 1-3 show the results of these studies.
The tissue distribution of radioactivity was determined in 16 normal male Fischer 344 rats (200-250 g) after intravenous injection of ˜85 μCi of [^18F]10 or [^18F]15 in 0.3 mL of sterile water. The animals were allowed food and water ad libitum before the experiment. The tail vein injections were performed in awake animals using a RTV-190 rodent restraint device (Braintree Scientific) to avoid mortality accompanying anesthesia in the presence of an intracranial mass. Groups of four rats were killed at 5 minutes, 30 minutes, 60 minutes and 120 minutes after injection of the dose. The animals were dissected, and selected tissues were weighed and counted along with dose standards in a Packard Cobra II Auto-Gamma Counter. The raw counts were decay corrected, and the counts were normalized as the percent of total injected dose per gram of tissue (% ID/g). A comparison of the uptake of activity in tumor tissue, […] at each time point was analyzed using a 1-way ANOVA (GraphPad Prism software package). FIGS. 1-3 below show the results of these studies.

Data set [3] relates to U87 Glioma tumor cells. Nature of the data set: Amino acid uptake assay in vitro, U87 tumor cells ± transporter inhibitors. The note with it: 30 minutes incubation. It counts as cell-based, human. As for the experimental part:
as §1, §2, §3, §4

The test system of data set [4] is SKOV3 Ovarian tumor cells. Nature of the data set: Amino acid uptake assay in vitro, SKOV3 tumor cells ± transporter inhibitors. The class given is cell-based, human. To be noted: 30 minutes incubation. As for the experimental part:
as §1, §2, §3, §4

The test system of data set [5] is A549 Lung tumor cells. Nature of the data set: Amino acid uptake assay in vitro, A549 tumor cells ± transporter inhibitors. It counts as cell-based, human. To be noted: 30 minutes incubation. As for the experimental part:
as §1, §2, §3, §4

The test system of data set [6] is 9L gliosarcoma cells and a variety of human cancer cell lines. Nature of the data set: Amino acid uptake assay in vitro as summarised in text. The class given is cell-based, rat; human. The note with it: for intracellular accumulation: absence of inhibitors, after 30 minutes of incubation; for amino acid transport system used for cell entry: based on inhibition of uptake in the presence of BCH. As for the experimental part: as §1, §2, §3, §4

Data set [7] deals with MB 468 Breast tumor cells. Nature of the data set: Amino acid uptake assay in vitro, MB 468 tumor cells ± transporter inhibitors. It counts as cell-based, human. To be noted: 30 minutes incubation. As to the method:
as §1, §2, §3, §4

In the case of `NC1(C(=O)O)CC([18F])C1` (stereo not drawn) [Anti-[^18F]FACBC, trans-(anti-) 1-amino-3-[^18F]fluorocyclobutane-1-carboxylic acid], the “Uptake in tumor cells expressed as percent uptake relative to control” value (from here on “Uptake … as percent uptake relative to control”) was 4.16% in data set [1] (DU145, BCH 10 mM); 13.90% in data set [1] (DU145, MeAIB 10 mM); 16.06% in data set [1] (DU145, no inhibitor); 1.51% in data set [3] (U87, BCH 10 mM); 3.45% in data set [3] (U87, MeAIB 10 mM); 3.41% in data set [3] (U87, no inhibitor). In addition, the “Uptake … as percent uptake relative to control” value in data set [4] (SKOV3, BCH 10 mM) worked out at 1.44%; in data set [4] (SKOV3, MeAIB 10 mM), 6.39%; in data set [4] (SKOV3, no inhibitor), 4.68%; in data set [5] (A549, BCH 10 mM), 2.69%; in data set [5] (A549, MeAIB 10 mM) it was 11.02%; in data set [5] (A549, no inhibitor) it was 12.17%. The “Uptake … as percent uptake relative to control” value in data set [7] (MB 468, BCH 10 mM) is 4.43%; in data set [7] (MB 468, MeAIB 10 mM) it was 14.80%; in data set [7] (MB 468, no inhibitor) it was 15.51%. Moreover, the “retention of radioactivity in tumor tissue” value in data set [2] was “high”. Further, the “Ratios of tumor uptake to normal brain uptake” value in data set [2] is on record as 6.5. In addition, the intracellular accumulation in data set [6] is on record as 0.43 % of the initial dose per million cells. Further, the “amino acid transport system used for cell entry” value in data set [6] was “substrates for the L-type amino acid transport system”.

For `N[C@]1(C(=O)O)C[C@H]([18F])C1` [Syn-[^18F]FACBC, syn-[^18F]1-amino-3-fluorocyclobutane-1-carboxylic acid], the “Uptake … as percent uptake relative to control” value in data set [1] (DU145, BCH 10 mM) came to 9.11%; in data set [1] (DU145, MeAIB 10 mM), 17.16%; in data set [1] (DU145, no inhibitor), 20.27%; in data set [3] (U87, BCH 10 mM), 5.00%; in data set [3] (U87, MeAIB 10 mM), 14.80%; in data set [3] (U87, no inhibitor), 24.77%. Further, the “Uptake … as percent uptake relative to control” value was 5.87% in data set [4] (SKOV3, BCH 10 mM); 8.48% in data set [4] (SKOV3, MeAIB 10 mM); 11.67% in data set [4] (SKOV3, no inhibitor); 3.85% in data set [5] (A549, BCH 10 mM); 9.61% in data set [5] (A549, MeAIB 10 mM); 11.91% in data set [5] (A549, no inhibitor). Further, the “Uptake … as percent uptake relative to control” value came out at 10.93% in data set [7] (MB 468, BCH 10 mM); 28.25% in data set [7] (MB 468, MeAIB 10 mM); 33.53% in data set [7] (MB 468, no inhibitor). Also, the “retention of radioactivity in tumor tissue” value in data set [2] is on record as “high”. Besides, the “Ratios of tumor uptake to normal brain uptake” value in data set [2] was 5.3. The intracellular accumulation in data set [6] is reported as 0.50 % of the initial dose per million cells. In addition, in data set [6], the “amino acid transport system used for cell entry” value is listed as “substrates for the L-type amino acid transport system”.
